In the experiment the test system is MV-4-11 cells. The experiment is described as follows: Gene expression microarray analysis (Affymetrix PrimeView) and GSEA. The experiment is classed as cell-based, human. Set-up: RFU PODN (11730768_x_at) / Fold change /veh PODN (11730768_x_at) / RFU LINC00158 (11744669_a_at) / Fold change /veh LINC00158 (11744669_a_at) / RFU DUSP10 (11751237_a_at) / Fold change /veh DUSP10 (11751237_a_at) / RFU ID3 (11757404_x_at) / Fold change /veh ID3 (11757404_x_at) / RFU PLEKHG5 (11737974_s_at) / Fold change /veh PLEKHG5 (11737974_s_at) / RFU LRRC4B (11730491_at) / Fold change /veh LRRC4B (11730491_at) / RFU GIMAP4 (11747438_a_at) / Fold change /veh GIMAP4 (11747438_a_at) / RFU KRT8 (11758183_x_at) / Fold change /veh KRT8 (11758183_x_at) / RFU CNN1 (11734310_a_at) / Fold change /veh CNN1 (11734310_a_at) / RFU VPS37D (11726825_at) / Fold change /veh VPS37D (11726825_at) / RFU C10orf10 (11716522_x_at) / Fold change /veh C10orf10 (11716522_x_at) / RFU KIR2DL2 /// KIR2DL4 /// KIR2DL5A /// KIR2DL5B /// KIR2DS1 /// KIR2DS2 /// KIR2DS3 /// KIR2DS4 /// KIR3DL3 /// KIR3DL3 /// KIR3DS1 (11738374_at) / Fold change /veh KIR2DL2 /// KIR2DL4 /// KIR2DL5A /// KIR2DL5B /// KIR2DS1 /// KIR2DS2 /// KIR2DS3 /// KIR2DS4 /// KIR3DL3 /// KIR3DL3 /// KIR3DS1 (11738374_at) / RFU C1QL1 (11718748_at) / Fold change /veh C1QL1 (11718748_at) / RFU TMPRSS4 (11747572_a_at) / Fold change /veh TMPRSS4 (11747572_a_at) / RFU HAMP (11756126_x_at) / Fold change /veh HAMP (11756126_x_at) / RFU RNFT2 (11725882_a_at) / Fold change /veh RNFT2 (11725882_a_at) / RFU NR4A2 (11747474_a_at) / Fold change /veh NR4A2 (11747474_a_at) / RFU ABCC12 (11746883_a_at) / Fold change /veh ABCC12 (11746883_a_at) / RFU TMEM136 (11760407_x_at) / Fold change /veh TMEM136 (11760407_x_at) / RFU CLDN22 /// WWC2 (11732394_at) / Fold change /veh CLDN22 /// WWC2 (11732394_at) / RFU HLA-DPB1 (11760878_x_at) / Fold change /veh HLA-DPB1 (11760878_x_at) / RFU SPINT1 (11716480_a_at) / Fold change /veh SPINT1 (11716480_a_at) / RFU GAP43 (11754022_s_at) / Fold change /veh GAP43 (11754022_s_at) / RFU A4GNT (11735810_at) / Fold change /veh A4GNT (11735810_at) / RFU PRB3 (11715151_x_at) / Fold change /veh PRB3 (11715151_x_at) / RFU TUBB4B (11761932_at) / Fold change /veh TUBB4B (11761932_at) / RFU CAPN14 (11732068_a_at) / Fold change /veh CAPN14 (11732068_a_at) / RFU TMCC2 (11721928_a_at) / Fold change /veh TMCC2 (11721928_a_at) / RFU IRGQ (11745062_a_at) / Fold change /veh IRGQ (11745062_a_at) / RFU FAM174B (11720279_a_at) / Fold change /veh FAM174B (11720279_a_at) / RFU TMPRSS4 (11748680_a_at) / Fold change /veh TMPRSS4 (11748680_a_at) / RFU FAM212B (11763350_a_at) / Fold change /veh FAM212B (11763350_a_at) / RFU PLEKHG5 (11743358_a_at) / Fold change /veh PLEKHG5 (11743358_a_at) / RFU ZSCAN30 (11745921_a_at) / Fold change /veh ZSCAN30 (11745921_a_at) / RFU CMKLR1 (11741424_a_at) / Fold change /veh CMKLR1 (11741424_a_at) / RFU LOC101060620 /// MAPK8IP1 (11723275_at) / Fold change /veh LOC101060620 /// MAPK8IP1 (11723275_at) / RFU SPTSSB (11747773_x_at) / Fold change /veh SPTSSB (11747773_x_at) / RFU PRSS12 (11739890_at) / Fold change /veh PRSS12 (11739890_at) / RFU BIN1 (11741810_x_at) / Fold change /veh BIN1 (11741810_x_at) / RFU WNT11 (11732464_a_at) / Fold change /veh WNT11 (11732464_a_at) / RFU C10orf10 (11716521_a_at) / Fold change /veh C10orf10 (11716521_a_at) / RFU C5orf56 (11738089_at) / Fold change /veh C5orf56 (11738089_at) / RFU CYB561 (11721691_x_at) / Fold change /veh CYB561 (11721691_x_at) / RFU ANKRD19P (11752326_a_at) / Fold change /veh ANKRD19P (11752326_a_at) / RFU OR2T12 /// OR2T33 /// OR2T8 (11738714_s_at) / Fold change /veh OR2T12 /// OR2T33 /// OR2T8 (11738714_s_at) / RFU VCAN (11748164_a_at) / Fold change /veh VCAN (11748164_a_at) / RFU JSRP1 (11732532_at) / Fold change /veh JSRP1 (11732532_at) / RFU KRTAP10-11 (11738290_x_at) / Fold change /veh KRTAP10-11 (11738290_x_at) / RFU MYO3A (11730013_a_at) / Fold change /veh MYO3A (11730013_a_at) / RFU EBF3 (11725865_a_at) / Fold change /veh EBF3 (11725865_a_at) / RFU CAMK2N1 (11719241_x_at) / Fold change /veh CAMK2N1 (11719241_x_at) / RFU C5orf56 (11738088_a_at) / Fold change /veh C5orf56 (11738088_a_at) / RFU OLFML3 (11715873_a_at) / Fold change /veh OLFML3 (11715873_a_at) / RFU LOC100653217 /// NTM (11731650_a_at) / Fold change /veh LOC100653217 /// NTM (11731650_a_at) / RFU MAPK11 (11762145_a_at) / Fold change /veh MAPK11 (11762145_a_at) / RFU FIZ1 (11724087_x_at) / Fold change /veh FIZ1 (11724087_x_at) / RFU OASL (11726364_x_at) / Fold change /veh OASL (11726364_x_at) / RFU SOX15 (11748057_x_at) / Fold change /veh SOX15 (11748057_x_at) / RFU CD79A (11719716_a_at) / Fold change /veh CD79A (11719716_a_at) / RFU HIST1H1D (11736915_at) / Fold change /veh HIST1H1D (11736915_at) / RFU CASKIN2 (11723855_a_at) / Fold change /veh CASKIN2 (11723855_a_at) / RFU LOC730098 (11760151_x_at) / Fold change /veh LOC730098 (11760151_x_at) / RFU OR4N2 (11742367_at) / Fold change /veh OR4N2 (11742367_at) / RFU PRRT2 (11749266_a_at) / Fold change /veh PRRT2 (11749266_a_at) / RFU SNX32 (11753110_a_at) / Fold change /veh SNX32 (11753110_a_at) / RFU CDHR5 (11726645_a_at) / Fold change /veh CDHR5 (11726645_a_at) / RFU RCAN1 (11760418_a_at) / Fold change /veh RCAN1 (11760418_a_at) / RFU FAM167A (11723789_a_at) / Fold change /veh FAM167A (11723789_a_at) / RFU FAM26E (11764081_at) / Fold change /veh FAM26E (11764081_at) / RFU ISYNA1 (11749810_s_at) / Fold change /veh ISYNA1 (11749810_s_at) / RFU ACY1 (11761880_at) / Fold change /veh ACY1 (11761880_at) / RFU 11764098_at / Fold change /veh 11764098_at / RFU SAMD14 (11745864_x_at) / Fold change /veh SAMD14 (11745864_x_at) / RFU NPB (11741838_a_at) / Fold change /veh NPB (11741838_a_at) / RFU TMPRSS6 (11731388_a_at) / Fold change /veh TMPRSS6 (11731388_a_at) / RFU KRTAP10-2 (11738614_at) / Fold change /veh KRTAP10-2 (11738614_at) / RFU ARHGAP8 /// PRR5-ARHGAP8 (11727945_x_at) / Fold change /veh ARHGAP8 /// PRR5-ARHGAP8 (11727945_x_at) / RFU KRTAP5-7 /// NADSYN1 (11734609_at) / Fold change /veh KRTAP5-7 /// NADSYN1 (11734609_at) / RFU RASL12 (11751679_a_at) / Fold change /veh RASL12 (11751679_a_at) / RFU CDKN2B (11736163_a_at) / Fold change /veh CDKN2B (11736163_a_at) / RFU PRF1 (11729649_at) / Fold change /veh PRF1 (11729649_at) / RFU, ZNF638 /// ZNF638-IT1 / Fold change vs veh, ZNF638 /// ZNF638-IT1 / RFU, PANK3 / Fold change vs veh, PANK3 / RFU, SH3YL1 / Fold change vs veh, SH3YL1 / RFU, ZEB2 / Fold change vs veh, ZEB2 / RFU, NRIP1 / Fold change vs veh, NRIP1 / RFU, PTTG1IP / Fold change vs veh, PTTG1IP / RFU, CAPN2 / Fold change vs veh, CAPN2 / RFU, MED14 / Fold change vs veh, MED14 / RFU, SNORA58 / Fold change vs veh, SNORA58 / RFU, C1orf63 / Fold change vs veh, C1orf63 / RFU, LRRFIP1 / Fold change vs veh, LRRFIP1 / RFU, NDUFAF7 / Fold change vs veh, NDUFAF7 / RFU, SLC12A2 / Fold change vs veh, SLC12A2 / RFU, IBTK / Fold change vs veh, IBTK / RFU, ESF1 / Fold change vs veh, ESF1 / Fold change vs veh, TMEM50B / RFU, TAOK1 / Fold change vs veh, TAOK1 / RFU, ACBD3 / Fold change vs veh, ACBD3 / RFU, TMA16 / Fold change vs veh, TMA16 / RFU, RWDD3 / Fold change vs veh, RWDD3 / RFU, BCAT1 / Fold change vs veh, BCAT1 / RFU, EDEM3 / Fold change vs veh, EDEM3 / RFU, TMEM33 / Fold change vs veh, TMEM33 / RFU, WDR75 / Fold change vs veh, WDR75 / RFU, AHCTF1 / Fold change vs veh, AHCTF1 / RFU, TFRC / Fold change vs veh, TFRC / RFU, ZDHHC17 / Fold change vs veh, ZDHHC17 / RFU, NOM1 / Fold change vs veh, NOM1 / RFU, ARL8B / Fold change vs veh, ARL8B / RFU, ZBTB11 / Fold change vs veh, ZBTB11 / RFU, TAMM41 / Fold change vs veh, TAMM41 / RFU, KIAA1704 /// LOC100996395 / Fold change vs veh, KIAA1704 /// LOC100996395 / RFU, ING1 / Fold change vs veh, ING1 / RFU, TRMT61B / Fold change vs veh, TRMT61B / RFU, FUBP3 / Fold change vs veh, FUBP3 / RFU, TP53 / Fold change vs veh, TP53 / RFU, TNKS2 / Fold change vs veh, TNKS2 / RFU, ZFP14 / Fold change vs veh, ZFP14 / RFU, ACTR2 / Fold change vs veh, ACTR2 / RFU, PPP3R1 / Fold change vs veh, PPP3R1 / RFU, PIK3R1 / Fold change vs veh, PIK3R1 / RFU, HNRNPA1 / Fold change vs veh, HNRNPA1 / RFU, RNF170 / Fold change vs veh, RNF170 / RFU, ZNF28 / Fold change vs veh, ZNF28 / RFU, RNGTT / Fold change vs veh, RNGTT / RFU, OGT / Fold change vs veh, OGT / RFU, BRD1 / Fold change vs veh, BRD1 / RFU, MARS / Fold change vs veh, MARS / RFU, ZNF655 / Fold change vs veh, ZNF655 / RFU, FAHD1 / Fold change vs veh, FAHD1 / RFU, BDP1 / Fold change vs veh, BDP1 / RFU, LRRCC1 / Fold change vs veh, LRRCC1 / RFU, ARID1A / Fold change vs veh, ARID1A / RFU, ZNF146 / Fold change vs veh, ZNF146 / RFU, ZNF330 / Fold change vs veh, ZNF330 / RFU, GPN3 / Fold change vs veh, GPN3 / RFU, C9orf123 / Fold change vs veh, C9orf123 / RFU, N4BP2L2 / Fold change vs veh, N4BP2L2 / RFU, ARFIP1 / Fold change vs veh, ARFIP1 / RFU, FAM179B / Fold change vs veh, FAM179B / RFU, BCL10 / Fold change vs veh, BCL10 / RFU, UHRF1BP1L / Fold change vs veh, UHRF1BP1L / RFU, BET1 / Fold change vs veh, BET1 / RFU, CNOT2 / Fold change vs veh, CNOT2 / RFU, ZNF268 / Fold change vs veh, ZNF268 / Fold change vs veh, ZNF507 / RFU, DGCR2 / Fold change vs veh, DGCR2 / RFU, WDSUB1 / Fold change vs veh, WDSUB1 / Fold change vs veh, HSP90B1 /// MIR3652 / RFU, ADSS / Fold change vs veh, ADSS / RFU, GK / Fold change vs veh, GK / RFU, ZNF148 / Fold change vs veh, ZNF148 / RFU, TAF9 / Fold change vs veh, TAF9 / RFU, SLC1A5 / Fold change vs veh, SLC1A5 / RFU, SLMO2 / Fold change vs veh, SLMO2 / RFU, ABCC4 / Fold change vs veh, ABCC4 / RFU, LOC101060439 /// RAP1B / Fold change vs veh, LOC101060439 /// RAP1B / RFU, RFX7 / Fold change vs veh, RFX7 / RFU, GTPBP10 / Fold change vs veh, GTPBP10 / RFU, CNEP1R1 / Fold change vs veh, CNEP1R1 / RFU, BIVM-ERCC5 /// ERCC5 / Fold change vs veh, BIVM-ERCC5 /// ERCC5 / RFU, ILF3 / Fold change vs veh, ILF3 / RFU 11762660_at / Fold change /veh 11762660_at / RFU VCAN (11757783_s_at) / Fold change /veh VCAN (11757783_s_at) / RFU DDX43 (11728927_at) / Fold change /veh DDX43 (11728927_at) / RFU KRT8 (11758188_x_at) / Fold change /veh KRT8 (11758188_x_at) / RFU NKD1 (11759106_at) / Fold change /veh NKD1 (11759106_at) / RFU SRD5A1 (11742802_a_at) / Fold change /veh SRD5A1 (11742802_a_at) / RFU TPSAB1 /// TPSB2 (11721975_s_at) / Fold change /veh TPSAB1 /// TPSB2 (11721975_s_at) / RFU GSTM3 (11746129_a_at) / Fold change /veh GSTM3 (11746129_a_at) / RFU IL23R (11737362_x_at) / Fold change /veh IL23R (11737362_x_at) / RFU TMEM51 (11727254_a_at) / Fold change /veh TMEM51 (11727254_a_at) / RFU PIWIL2 (11732686_x_at) / Fold change /veh PIWIL2 (11732686_x_at) / RFU ORM1 (11744905_x_at) / Fold change /veh ORM1 (11744905_x_at) / RFU CCDC152 (11743942_at) / Fold change /veh CCDC152 (11743942_at) / RFU ECM1 (11717891_a_at) / Fold change /veh ECM1 (11717891_a_at) / RFU IL23R (11748794_a_at) / Fold change /veh IL23R (11748794_a_at) / RFU TNFAIP8L3 (11732012_x_at) / Fold change /veh TNFAIP8L3 (11732012_x_at) / RFU MBOAT4 (11741988_at) / Fold change /veh MBOAT4 (11741988_at) / RFU 11764193_at / Fold change /veh 11764193_at / RFU TMEM53 (11763286_at) / Fold change /veh TMEM53 (11763286_at) / RFU MAGEB2 (11727129_at) / Fold change /veh MAGEB2 (11727129_at) / RFU TMEM200A (11744735_a_at) / Fold change /veh TMEM200A (11744735_a_at) / RFU CCDC152 (11751479_a_at) / Fold change /veh CCDC152 (11751479_a_at) / RFU FAM211A (11726209_a_at) / Fold change /veh FAM211A (11726209_a_at) / RFU RGS16 (11746705_a_at) / Fold change /veh RGS16 (11746705_a_at) / RFU VCAN (11755009_s_at) / Fold change /veh VCAN (11755009_s_at) / RFU RHOB (11743442_s_at) / Fold change /veh RHOB (11743442_s_at) / RFU RGS16 (11720943_a_at) / Fold change /veh RGS16 (11720943_a_at) / RFU RGS16 (11720944_at) / Fold change /veh RGS16 (11720944_at) / RFU, VPS4B / Fold change vs veh, VPS4B / RFU, CREB1 / Fold change vs veh, CREB1 / RFU, DNAJC13 / Fold change vs veh, DNAJC13 / RFU, GNAQ / Fold change vs veh, GNAQ / RFU, CDK5R1 / Fold change vs veh, CDK5R1 / RFU, ZRANB3 / Fold change vs veh, ZRANB3 / RFU, CUL4A / Fold change vs veh, CUL4A / RFU, CCNY / Fold change vs veh, CCNY / RFU, UFL1 / Fold change vs veh, UFL1 / RFU, COG3 / Fold change vs veh, COG3 / RFU, DIAPH2 / Fold change vs veh, DIAPH2 / RFU, SKA2 / Fold change vs veh, SKA2 / RFU, AFF3 / Fold change vs veh, AFF3 / RFU, LMF1 / Fold change vs veh, LMF1 / RFU, IPO11 / Fold change vs veh, IPO11 / RFU, DFFB / Fold change vs veh, DFFB / RFU, FOXP1 / Fold change vs veh, FOXP1 / RFU, CARD8 / Fold change vs veh, CARD8 / RFU, STRN3 / Fold change vs veh, STRN3 / RFU, ADK / Fold change vs veh, ADK / RFU, RASSF2 / Fold change vs veh, RASSF2 / RFU, WIPF1 / Fold change vs veh, WIPF1 / RFU, LARP1B / Fold change vs veh, LARP1B / RFU, RASA1 / Fold change vs veh, RASA1 / RFU, RB1 / Fold change vs veh, RB1 / RFU, PPFIA1 / Fold change vs veh, PPFIA1 / RFU, MAT2A / Fold change vs veh, MAT2A / RFU, CCT5 / Fold change vs veh, CCT5 / RFU, WDR92 / Fold change vs veh, WDR92 / RFU, CUX1 / Fold change vs veh, CUX1 / RFU, TTC7A / Fold change vs veh, TTC7A / RFU, TMEM135 / Fold change vs veh, TMEM135 / RFU, DEPTOR / Fold change vs veh, DEPTOR / RFU, CPM / Fold change vs veh, CPM / RFU, DNAJB6 / Fold change vs veh, DNAJB6 / RFU, CACNA2D3 / Fold change vs veh, CACNA2D3 / RFU, DTX4 / Fold change vs veh, DTX4 / RFU, TFCP2 / Fold change vs veh, TFCP2 / RFU, GMCL1 /// GMCL1P1 / Fold change vs veh, GMCL1 /// GMCL1P1 / RFU, AEBP2 / Fold change vs veh, AEBP2 / RFU, SNHG1 /// SNORD22 /// SNORD25 /// SNORD26 /// SNORD27 /// SNORD28 /// SNORD29 /// SNORD31 / Fold change vs veh, SNHG1 /// SNORD22 /// SNORD25 /// SNORD26 /// SNORD27 /// SNORD28 /// SNORD29 /// SNORD31 / Fold change (Aza/veh), C12orf56 (ProbeSet 11735607_a_at) / Fold change (ACY-1035/veh), C12orf56 (ProbeSet 11735607_a_at) / Fold change (Aza/veh), FGFR1OP (ProbeSet 11751329_s_at) / Fold change (ACY-1035/veh), FGFR1OP (ProbeSet 11751329_s_at) / Fold change (Aza/veh), VPS36 (ProbeSet 11739960_a_at) / Fold change (ACY-1035/veh), VPS36 (ProbeSet 11739960_a_at) / RFU SYPL1 (11715823_x_at) / Fold change /veh SYPL1 (11715823_x_at) / RFU IGFBP7 (11715501_s_at) / Fold change /veh IGFBP7 (11715501_s_at) / RFU REEP3 (11722064_at) / Fold change /veh REEP3 (11722064_at) / RFU IGLL1 (11728026_x_at) / Fold change /veh IGLL1 (11728026_x_at): dose or concentration left out as unconfirmed. Conditions: ProbeSet 11753234_a_at; LIST B.

Structures are written as SMILES.

For the compound `Nc1ccc(-c2cccs2)cc1NC(=O)c1ccc2c(c1)cc(C1CC1)n2CCN1CCOCC1` [ACY-1035], the “Fold change vs veh, TAMM41” value was found to be 0.90.

For the origin of these results see publication PMC5218480 (PLoS ONE, 2017).
